Results as given in patent US6673839B1, “Pharmaceutical compositions with antitumour activity” (Universita' Degli Studi di Catania, priority 1998, dated 2004).
Where a name gives a salt, the structure may show the parent alone.

Assays:
[1] = tested on: multirecurrent urinary bladder neoplasia; assay: Patients with urinary bladder multirecurrent neoplasia treated orally; assay type: in vivo, human
Excerpt: 10 patients, 8 males and 2 females, of age from 55 to 75 years, all affected with multirecurrent urinary bladder neoplasia, at stages ranging from pT1G1NxMx and pT2G3NxMx, were orally treated with L-aC, at a standard dosage of 2 g/day, for a time from 10 to 12 months. They were then subjected to follow-up ranging from 6 to 22 months.
Before treatment with L-aC, patients had undergone an individual number of endoscopic resections (Turb), varying from 6 to 19 and in 1 case partial cystectomy with ureterocystoneostomy had been performed.
In all patients, treatment with L-aC started immediately after endoscopic resection.
Patients were subjected to quarterly endoscopic verification for the first year from the beginning of the treatment.
After 4 negative quarterly controls, the endoscopic control was performed every six months for a duration of 2 years.

[2] = tested on: cells from 4 primitive epidermoid carcinomas of the larynx and 1 primitive undifferentiated carcinoma of the nasopharynx; assay: In vitro short-term chemosensitivity assay (MTT), all five explants; assay type: cell-based, human
Method: (§1) The effects of L-aC on cells from 4 primitive epidermoid carcinomas of the larynx and 1 primitive undifferentiated carcinoma of the nasopharynx were tested.
(§2) Tissue fragments from the tumour mass were mechanically dissociated in Hank's solutions adding an antibiotic and an antifungal to obtain a cell monosuspension free of agglomerates. The resulting suspension was centrifuged at 1200 rpm for 5 minutes and the pellet was resuspended in MEM culture medium supplemented with 10% of patient serum, to obtain a concentration of 10^5 cells/ml. Subsequently, 180 μl of the resulting suspension were dispensed in microplate wells and incubated under 5% CO2 atmosphere at 37° C. for 3 days. After that, the antitumor medicaments were added in the amount of 20 μl for each well, at a concentration of 0.1×, 1× and 10× the maximum serum concentrations that can usually be reached in clinical practice. 24 h after the beginning of the exposure to the antitumour medicament, 100 μl of MTT were added, and after 4 h, a further 150 μl of dimethylsulfoxide were added.
(§3) The optical density was evaluated by a Uniscan microspectrophotometer with a […] wavelength filter. Cytotoxicity was evaluated as percentage of the optical density of the treated sample compared with the optical density of the control.
(§4) Bleomycin (BLEC), […] (CDDP), 5-fluoruracil (5-FU), vincristine (VCR), epidoxorubicin (Epi-Dx) and methotrexate (MTX) were tested for comparison purposes.
(§5) L-aC was tested at the following concentrations: 0.2-2-20 mg/ml.

[3] = tested on: Cells from Nasopharynx Carcinoma Explant; assay: In vitro short-term chemosensitivity assay (MTT); assay type: cell-based, human; settings: Table 1, 24 h
Method: as §1, §2, §3, §4, §5
In vitro short-term chemosensitivity assay (according to Hill and coll.)
(Cell Vitality Percentage After Exposure to the Antitumoral)—Raw Data
(Cells from Nasopharynx Carcinoma Explant)

[4] = tested on: cells from 4 primitive epidermoid carcinomas of the larynx and 1 primitive undifferentiated carcinoma of the nasopharynx; assay: Effects of L-aC on cell cycle of cultured primitive human tumour cells (cytofluorimetric analysis); assay type: cell-based
Method: as §1
Tissue fragments from the tumour mass were mechanically dissociated in Hank's solutions adding an antibiotic and an antifungal to obtain a cell monosuspension free of agglomerates. The resulting suspension was centrifuged at 1200 rpm for 5 m′ and the pellet was resuspended in MEM culture medium supplemented with 10% of patient serum, to obtain a concentration of 2−3×10^4 cells/ml of medium. 1 ml Samples were prepared from the suspension, in amounts equivalent to the number of the concentrations to be assayed (0.2-20 mg/ml) as well as a control sample.
The suspensions were exposed to the medicament in Dubnoff bath at 37° C. for 24 h, then centrifuged and resuspended in 1 ml of fixing solution (tris buffer+methanol (1:3)) for 30 minutes and finally stained with 0.5% propyl iodide with simultaneous treatment with RNase.
Cytofluorimetric analysis in order to evaluate the percentage distribution of the cell cycle phases, was performed by an Ortho Diagnostic Spectrum III cytofluorigraph, equipped with Graphic Method computerized program.
The evaluation of the cell sensitivity to the medicament was based on the extent of the perturbations induced by L-aC on the cell cycle.

[5] = tested on: colon (HT 29) adenocarcinoma cell line; assay: Methylene blue assay on stabilized human neoplastic cell lines; assay type: cell-based
Method: (§6) The effects of L-aC on stabilized human neoplastic cell lines were tested using the methylene blue assay.
(§7) Acute promyelocytic leukemia cell line (HL60) and prostate (Du 145), colon (HT 29) and breast (MCF 7) adenocarcinoma cell lines have been used.
(§8) Cell suspensions at concentrations of 10^5 cells/ml were prepared.
(§9) 100 μl of the obtained cell suspension were inoculated on 96 well plates and incubated at 37° for 12 hours, to obtain cell adhesion to the plates. After 12 hours, L-aC was added at the concentrations of 0.2 mg/ml, 2 mg/ml, 20 mg/ml. […] Subsequently ethanol was removed and 1% methylene-blue was added for 2 hours. The dye was then removed and the plates were dried before adding 1M HCl.
(§10) The cytotoxicity percentage was calculated using the following formula:
(§11) (1−[O^D treated cells/O^D control cells)×100.
(§12) The optical density was evaluated by Uniskan micro-spectrophotometer with 630 nmwavelength filter.
(§13) The induction of apoptosis (appraised by Giemsa staining) was remarkable mainly on stabilized human neoplastic cell lines from breast and colon carcinomas.

[6] = tested on: breast (MCF 7) adenocarcinoma cell line; assay: as above; assay type: cell-based
Method: as §6, §7, §8, §9, §10, §11, §12, §13

[7] = tested on: HL60, Du 145, HT 29 and MCF 7 cell lines; assay: Sensitivity and apoptosis in all assayed stabilized human neoplastic cell lines; assay type: cell-based
Method: as §6, §7, §8
100 μl of the obtained cell suspension were inoculated on 96 well plates and incubated at 37° for 12 hours, to obtain cell adhesion to the plates. After 12 hours, L-aC was added at the concentrations of 0.2 mg/ml, 2 mg/ml, 20 mg/ml. After 72 hours, the culture medium was removed and 100 μl of 100% ethanol were added for 30 min. Subsequently ethanol was removed and 1% methylene-blue was added for 2 hours. The dye was then removed and the plates were dried before adding 1M HCl.
The induction of apoptosis has been detected due to nuclear cromatin condensation, cytoplasmic shrinking, endoplasmic reticulum dilatation and membrane blebbing together with DNA fragmentation.

[8] = 20 mg/ml, 48 hours after exposure

CC(=O)OC(CC(=O)[O-])C[N+](C)(C)C [L-aC, L-acetylcarnitine hydrochloride]
disease status at follow-up ([1]; 2 patients completed follow-up, 6 still under study): free from the disease
endoscopic control for tumour ([1]; 10 patients, oral 2 g/day 10 to 12 months after endoscopic resection, first and subsequent quarterly controls): all patients were negative for the tumour
hematochemical parameters and side effects during treatment ([1]; oral 2 g/day, 10 to 12 months): Neither significant changes in the hematochemical parameters nor side effects of any kind were observed
IC50 ([2]; Homo sapiens, read-out: IC 50 concentrations): 20 to 700 µg/mL
IC90 ([2]; Homo sapiens, read-out: IC 90 concentrations): 700 to 20000 µg/mL
most active medicaments (cases out of 5) ([2]; five explants): 4/5
Cell Vitality Percentage After Exposure ([3]; 0.1x maximum clinical serum concentration (L-aC tested at 0.2-2-20 mg/ml)): 58%
Cell Vitality Percentage After Exposure ([3]; 1x maximum clinical serum concentration): 4.8%
Cell Vitality Percentage After Exposure ([3]; 10x maximum clinical serum concentration): 4%
increase in the percentage of S phase cells compared with the control ([4]; 0.2 mg/ml, 24 h, all samples): about 10%
effect on cell cycle ([4]; 20 mg/ml, 24 h): block in the percentage of the cells in G1 phase
G1/S+G2M ratio after the treatment ([4]; 20 mg/ml, tumour with pre-treatment ratio 31/69): 70/30
cytotoxicity (percentage of dead cells) [5, 8]: 63%
induction of apoptosis (Giemsa staining) ([5]; colon carcinoma line): remarkable
cytotoxicity (percentage of dead cells) [6, 8]: 68%
induction of apoptosis (Giemsa staining) ([6]; breast carcinoma line): remarkable
programmed cell death phenomena ([7]; 0.2 mg/ml, all assayed cell lines): Phenomena suggestive of programmed cell death were already observed
programmed cell death phenomena ([7]; 2 mg/ml): more marked and evident
change of effect over concentration range ([7]; 2 to 20 mg/ml): No significant changes
sensitivity of the tested cell lines ([7]; all tested cell lines): sensitive
